According to ChEMBL document CHEMBL3817836, “One small molecule as a theranostic agent: naphthalimide dye for subcellular fluorescence localization and photodynamic therapy in vivo” (Medchemcomm, 2016):
Values belong to the compound of their own block, whether it stands above or below them. Calls of active or inactive are those of the source. The calls are words filed in the database; no cut-off is given here.

Columns and labels:
[1] = Toxicity against human MCF7 cells assessed as reduction in cell viability measured after 48 hrs by MTT assay; assay type: cell-based
[2] = tested on: MCF7; assay: Photo-cytotoxicity against human MCF7 cells assessed as reduction in cell viability incubated for 48 hrs followed by 28.8 J/cm2 laser irradiation for 20 mins by MTT assay; assay type: functional, cell-based; conditions: MCF7, light or radiation study
[3] = tested on: Mus musculus; assay: Toxicity in nude mouse xenografted with human A375 cells exposed to 28.8 J/cm2 laser irradiation assessed as change in body weight at 5 mg/kg administered twice a week measured after 21 days; assay type: organism-based, A-375; conditions: in vivo, 504 h
[4] = tested on: MCF7; assay: Photo-cytotoxicity against human MCF7 cells assessed as induction of cell death incubated for 48 hrs followed by 28.8 J/cm2 laser irradiation dose 20 mins by MTT assay; assay type: functional, cell-based
[5] = tested on: A-375; assay: Antitumor activity against human A375 cells xenografted in nude mouse assessed as tumor size at 5 mg/kg administered twice week measured after 21 days (reference value: 4.31 +/- 0.38); assay type: functional
[6] = tested on: A-375; assay: Induction of apoptosis in human A375 cells exposed to 28.8 J/cm2 laser irradiation assessed as nuclear condensation measured after 12 hrs by TUNEL assay; assay type: functional, cell-based
[7] = tested on: A-375; assay: Induction of apoptosis in human A375 cells exposed to 28.8 J/cm2 laser irradiation assessed as increase in PARP cleavage by western blot analysis; assay type: functional, cell-based; conditions: TDE = time-dependent effect
[8] = tested on: MKN-45; assay: Photo-cytotoxicity against human MKN45 cells assessed as induction of cell death incubated for 48 hrs followed by 28.8 J/cm2 laser irradiation dose 20 mins by MTT assay; assay type: functional, cell-based
[9] = Cellular uptake in endoplasmic reticulum of human […] cells at 2.5 uM incubated for 48 hrs followed by 28.8 J/cm2 laser irradiation for 20 mins by ER tracker Red dye based confocal microscopy; assay type: ADME, cell-based
[10] = Cellular uptake in lysosome of human […] cells at 2.5 uM incubated for 48 hrs followed by 28.8 J/cm2 laser irradiation for 20 mins by lysosome Red dye based confocal microscopy; assay type: ADME, cell-based
[11] = tested on: Mus musculus; assay: Toxicity in nude mouse xenografted with human A375 cells assessed as change in body weight at 5 mg/kg administered twice a week measured after 21 days; assay type: organism-based, A-375; conditions: in vivo, 504 h
[12] = tested on: A-375; assay: Induction of apoptosis in human A375 cells exposed to 28.8 J/cm2 laser irradiation assessed as increase in intracellular ROS using DCFH-DA after 12 hrs by spectrofluorimetric method; assay type: functional, cell-based
[13] = tested on: A-375; assay: Photo-cytotoxicity against human A375 cells assessed as induction of cell death incubated for 48 hrs followed by 28.8 J/cm2 laser irradiation dose 20 mins by MTT assay; assay type: functional, cell-based
[14] = tested on: A-375; assay: Induction of apoptosis in human A375 cells exposed to 28.8 J/cm2 laser irradiation assessed as nuclear fragmentation measured after 12 hrs by TUNEL assay; assay type: functional, cell-based
[15] = tested on: A-375; assay: Induction apoptosis in human A375 cells xenografted into nude mouse at 5 mg/kg administered twice week measured after 21 days by TUNEL assay; assay type: functional, organism-based
[16] = tested on: A-375; assay: Induction of apoptosis in human A375 cells exposed to 28.8 J/cm2 laser irradiation assessed as increase in intracellular ROS using DCFH-DA after 4 hrs by spectrofluorimetric method; assay type: functional, cell-based
[17] = tested on: Mus musculus; assay: Toxicity in nude mouse xenografted with human A375 cells assessed as tissue lesions at 5 mg/kg by hematoxylin-eosin staining method; assay type: organism-based, A-375; conditions: in vivo
[18] = tested on: A-375; assay: Induction of apoptosis in human A375 cells exposed to 28.8 J/cm2 laser irradiation assessed as increase in caspase3 cleavage by western blot analysis; assay type: functional, cell-based; conditions: TDE = time-dependent effect
[19] = tested on: HCT-116; assay: Photo-cytotoxicity against human HCT116 cells assessed as induction of cell death incubated for 48 hrs followed by 28.8 J/cm2 laser irradiation dose 20 mins by MTT assay; assay type: functional, cell-based
[20] = tested on: A-375; assay: Induction apoptosis in human A375 cells xenografted into nude mouse exposed to 28.8 J/cm2 laser irradiation assessed as increase in cleaved capase-3 level at 5 mg/kg administered twice week measured after 21 days by immunohistochemistry assay; assay type: functional, organism-based
[21] = tested on: A-375; assay: Antitumor activity against human A375 cells xenografted in nude mouse exposed to 28.8 J/cm2 laser irradiation assessed as tumor size at 5 mg/kg administered twice week measured after 21 days (reference value: 4.31 +/- 0.38); assay type: functional
[22] = Cellular uptake in nucleus of human […] cells at 2.5 uM incubated for 48 hrs followed by 28.8 J/cm2 laser irradiation for 20 mins by DAPI dye based confocal microscopy; assay type: ADME, cell-based
[23] = tested on: A-375; assay: Cellular uptake in human A375 cells at 2.5 uM incubated for 48 hrs followed by 28.8 J/cm2 laser irradiation for 20 mins by fluorescence microscopic imaging method; assay type: ADME, cell-based; conditions: a-375, 48 h
[24] = tested on: A-375; assay: Induction of apoptosis in human A375 cells exposed to 28.8 J/cm2 laser irradiation assessed as apoptotic bodies measured after 12 hrs by TUNEL assay; assay type: functional, cell-based
[25] = tested on: A-375; assay: Induction apoptosis in human A375 cells xenografted into nude mouse exposed to 28.8 J/cm2 laser irradiation at 5 mg/kg administered twice week measured after 21 days by TUNEL assay; assay type: functional, organism-based
[26] = tested on: Mus musculus; assay: Toxicity in nude mouse xenografted with human A375 cells exposed to 28.8 J/cm2 laser irradiation assessed as tissue lesions at 5 mg/kg by hematoxylin-eosin staining method; assay type: organism-based, A-375; conditions: in vivo
[27] = Cellular uptake in mitochondria of human […] cells at 2.5 uM incubated for 48 hrs followed by 28.8 J/cm2 laser irradiation for 20 mins by Mitotracker Red dye based confocal microscopy; assay type: ADME

Compound: O=c1c2ccc3sc4ccccc4c4ccc(c(=O)n1CCOCCO)c2c34
- IC50 at 48 h [1]: 18.2 µM
- IC50 [2]: 1.4 µM

Compound: O=C1c2cccc3c2c(cc2c4ccccc4sc32)C(=O)N1CCOCCO
- IC50 at 48 h [1]: 18.8 µM
- IC50 [2]: 11.4 µM

- Drug uptake [9]: Not Active
- Drug uptake [10]: Not Active
- Drug uptake [22]: Not Active
- Drug uptake [23]: Active
- Drug uptake [27]: Active
Compound: O=c1c2ccc3sc4ccc(Br)cc4c4ccc(c(=O)n1CCOCCO)c2c34
- IC50 at 48 h [1]: > 50 µM
- Activity [3]: Non-toxic
- Activity [4]: Dose-dependent effect
- fold change (FC) [5]: 3
- Activity [6]: Active
- Activity [7]: tde
- Activity [8]: Dose-dependent effect
- Activity [11]: Non-toxic
- Activity [12]: inactive
- Activity [13]: Dose-dependent effect
- Activity [14]: Active
- Activity [15]: inactive
- IC50 [2]: 2.65 µM
- Activity [16]: Active
- Activity [17]: Toxic
- Activity [18]: tde
- Activity [19]: Dose-dependent effect
- Activity [20]: Active
- fold change (FC) [21]: 0.5
- Activity [24]: Active
- Activity [25]: Active
- Activity [26]: Toxic

Compound: O=C1c2cccc3c2c(cc2c4cc(Br)ccc4sc32)C(=O)N1CCOCCO
- IC50 at 48 h [1]: > 50 µM
- IC50 [2]: 18.5 µM
